IC50 data for 21 molecules are collected here from patent publication US8637499B2, “Benzoxazepines as inhibitors of PI3K/mTOR and methods of their use and manufacture” (Exelixis, Inc., priority 2009, dated 2014).

The target of one experiment is PI3Kα (Homo sapiens, UniProt P42336). The experiment can be described thus: PI3K Biochemical Assays (ATP consumption, luciferase-luciferin chemiluminescence). The settings on record: PI3Kα 1.5 nM, ATP 1 μM, PIP2 10 μM; percent of ATP consumed. Here is the method:
PI3Kα activity is measured as the percent of ATP consumed following the kinase reaction using luciferase-luciferin-coupled chemiluminescence. Reactions were conducted in 384-well white, medium binding microtiter plates (Greiner). Kinase reactions were initiated by combining test compounds, ATP, substrate (PIP2), and kinase in a 20 μL volume in a buffer solution. The standard PI3Kalpha assay buffer is composed 50 mM Tris, pH 7.5, 1 mM EGTA, 10 mM MgCl2, 1 mM DTT and 0.03% CHAPS. The standard assay concentrations for enzyme, ATP, and substrate are 1.5 nM, 1 μM, and 10 μM, respectively. The reaction mixture was incubated at ambient temperature for approximately 2 h. Following the kinase reaction, a 10 μL aliquot of luciferase-luciferin mix (Promega Kinase-Glo) was added and the chemiluminescence signal measured using a Victor2 plate reader (Perkin Elmer). Total ATP consumption was limited to 40-60% and IC50 values of control compounds correlate well with literature references. Substituting PI3Kα with PI3KIβ, […], or […], the inhibitory activity of the compounds for the other isoforms of I3K were measured.

The next experiment concerns the target mTORC1 (mTOR/GbL/Raptor) (Homo sapiens, UniProt P42345). The experiment can be described thus: mTOR/GbL/Raptor (mTORC1) ELISA Assay. The settings on record: 0.2 nM mTORC1, 10 μM ATP, 50 nM NHis-tagged 4E-BP1; phosphorylation of 4E-BP1; read-out: IC50. The class given is biochemical. On the procedure: mTOR/GbL/Raptor (mTORC1) ELISA Assay
The measurement of mTORC1 enzyme activity was performed in an ELISA assay format following the phosphorylation of 4E-BP1 protein. All experiments were performed in the 384-well format. Generally, 0.5 μL DMSO containing varying concentrations of the test compound was mixed with 15 μL enzyme solution. Kinase reactions were initiated with the addition of 15 μL of substrates-containing solution. The assay conditions were as follows; 0.2 nM mTORC1, 10 μM ATP and 50 nM NHis-tagged 4E-BP1 in 20 mM Hepes, pH 7.2, 1 mM DTT, 50 mM NaCl, 10 mM MnCl2, 0.02 mg/mL BSA, 0.01% CHAPS, 50 mM β-glycerophosphate. Following an incubation of 120 minutes at ambient temperature, 20 μL of the reaction volume was transferred to a Ni-Chelate-coated 384-well plate. The binding step of the 4E-BP1 protein proceeded for 60 minutes, followed by washing 4 times each with 50 μL of Tris-buffered saline solution (TBS). Anti-phospho-4E-BP1 rabbit-IgG (20 μL, 1:5000) in 5% BSA-TBST (0.2% Tween-20 in TBS) was added and further incubated for 60 minutes. Incubation with a secondary HRP-tagged anti-IgG was similarly performed after washing off the primary antibody (4 washes of 50 μL). Following the final wash step with TBST, 20 μL of SuperSignal ELISA Femto (Pierce Biotechnology) was added and the luminescence measured using an EnVision plate reader.
On the technique in general: ELISA stands for enzyme-linked immunosorbent assay.

PI3Kα, sequence (P42336 whole entry): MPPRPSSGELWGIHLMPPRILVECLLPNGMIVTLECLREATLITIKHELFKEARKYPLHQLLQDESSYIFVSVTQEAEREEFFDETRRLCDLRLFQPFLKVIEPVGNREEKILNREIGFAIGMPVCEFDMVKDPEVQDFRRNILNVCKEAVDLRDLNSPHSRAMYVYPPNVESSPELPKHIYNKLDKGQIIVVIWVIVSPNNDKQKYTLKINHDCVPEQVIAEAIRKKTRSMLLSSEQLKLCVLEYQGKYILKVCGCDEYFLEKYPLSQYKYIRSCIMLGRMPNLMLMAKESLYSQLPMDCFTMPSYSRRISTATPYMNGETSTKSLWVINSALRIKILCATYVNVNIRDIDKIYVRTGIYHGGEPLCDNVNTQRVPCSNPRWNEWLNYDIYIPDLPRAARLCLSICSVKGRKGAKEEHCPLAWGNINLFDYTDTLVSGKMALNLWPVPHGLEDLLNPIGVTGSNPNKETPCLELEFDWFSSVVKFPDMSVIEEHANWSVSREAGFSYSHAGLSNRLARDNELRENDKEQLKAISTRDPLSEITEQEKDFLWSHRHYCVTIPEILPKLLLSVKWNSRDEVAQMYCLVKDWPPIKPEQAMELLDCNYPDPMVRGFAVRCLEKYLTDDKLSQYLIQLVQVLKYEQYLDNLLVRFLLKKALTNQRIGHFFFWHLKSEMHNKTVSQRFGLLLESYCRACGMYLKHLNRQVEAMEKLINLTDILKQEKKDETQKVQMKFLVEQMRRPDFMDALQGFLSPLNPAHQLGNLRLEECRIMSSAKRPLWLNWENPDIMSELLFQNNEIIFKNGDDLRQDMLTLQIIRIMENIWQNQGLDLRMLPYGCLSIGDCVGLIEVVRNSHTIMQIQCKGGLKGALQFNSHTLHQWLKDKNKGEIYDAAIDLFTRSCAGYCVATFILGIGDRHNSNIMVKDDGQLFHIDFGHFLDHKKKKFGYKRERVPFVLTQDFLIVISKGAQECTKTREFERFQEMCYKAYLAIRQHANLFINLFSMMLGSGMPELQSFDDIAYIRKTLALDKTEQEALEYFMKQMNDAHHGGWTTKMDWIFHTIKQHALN
PI3Kα, sequence (P27986 whole entry partner): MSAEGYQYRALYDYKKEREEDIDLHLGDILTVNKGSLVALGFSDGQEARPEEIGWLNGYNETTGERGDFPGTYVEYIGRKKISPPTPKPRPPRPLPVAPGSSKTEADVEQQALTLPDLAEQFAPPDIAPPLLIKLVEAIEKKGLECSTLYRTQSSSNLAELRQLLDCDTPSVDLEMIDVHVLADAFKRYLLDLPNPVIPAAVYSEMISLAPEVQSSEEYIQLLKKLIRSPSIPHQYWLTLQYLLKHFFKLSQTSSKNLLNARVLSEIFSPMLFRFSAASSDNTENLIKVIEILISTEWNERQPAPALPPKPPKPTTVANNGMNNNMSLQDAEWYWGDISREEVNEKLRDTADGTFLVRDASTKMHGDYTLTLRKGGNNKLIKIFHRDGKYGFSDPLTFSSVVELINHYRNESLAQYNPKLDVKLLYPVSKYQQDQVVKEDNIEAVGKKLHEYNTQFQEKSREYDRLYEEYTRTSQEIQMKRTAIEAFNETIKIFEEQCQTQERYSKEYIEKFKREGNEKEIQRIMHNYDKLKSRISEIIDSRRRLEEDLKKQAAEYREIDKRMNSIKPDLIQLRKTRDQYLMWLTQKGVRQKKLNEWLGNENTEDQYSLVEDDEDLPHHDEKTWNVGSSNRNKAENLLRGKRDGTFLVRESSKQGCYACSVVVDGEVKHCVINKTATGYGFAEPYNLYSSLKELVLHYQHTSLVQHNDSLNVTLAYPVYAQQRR

For `COC(=O)Nc1nc2cc(-c3ccc4c(c3)CN(C(=O)N3CC[C@H](O)C[C@@H]3c3ccc(F)cc3)CCO4)ccc2[nH]1` (racemic) [Compound 17, (±)-methyl [5-(4-{[(2R,4S)-2-(4-fluorophenyl)-4-hydroxypiperidin-1-yl]carbonyl}-2,3,4,5-tetrahydro-1,4-benzoxazepin-7-yl)-1H-benzimidazol-2-yl]carbamate], the figures for the IC50 against PI3Kα and on mTORC1 (mTOR/GbL/Raptor) were 75 to 200 nM and 700 to 2600 nM, respectively.

As for `Cc1nc2ccc(-c3ccc4c(c3)CN(C(=O)N3CC[C@@H]5CCCC[C@H]5C3)CCO4)cc2[nH]1` (racemic) [Compound 80, (±)-7-(2-methyl-1H-benzimidazol-6-yl)-4-[(4aS,8aR)-octahydroisoquinolin-2(1H)-ylcarbonyl]-2,3,4,5-tetrahydro-1,4-benzoxazepine], the values for the half-maximal inhibitory concentration (IC50) on PI3Kα and on mTORC1 (mTOR/GbL/Raptor) were 1000 to 3000 nM and 250 to 700 nM, respectively.

Regarding `CC1=C[C@H]2CN(C(=O)N3CCOc4ccc(-c5ccc6[nH]c(C)nc6c5)cc4C3)C[C@H]2C1` (racemic) [Compound 91, (±)-7-(2-methyl-1H-benzimidazol-5-yl)-4-{[(3aS,6aR)-5-methyl-3,3a,4,6a-tetrahydrocyclopenta[c]pyrrol-2(1H)-yl]carbonyl}-2,3,4,5-tetrahydro-1,4-benzoxazepine], the IC50 (as a rule, the point on the concentration scale where inhibition reaches its midpoint) lay in the range of 200 to 500 nM at PI3Kα and 50 to 250 nM on mTORC1 (mTOR/GbL/Raptor).

In the case of `Cc1nc2cc(-c3ccc4c(c3)CN(C(=O)N3CC[C@](C)(O)C[C@@H]3c3ccccc3)CCO4)ccc2[nH]1` (racemic) [Compound 134, (±)-(2R,4S)-4-methyl-1-{[7-(2-methyl-1H-benzimidazol-5-yl)-2,3-dihydro-1,4-benzoxazepin-4(5H)-yl]carbonyl}-2-phenylpiperidin-4-ol], the IC50 against PI3Kα is 1000 to 3000 nM; on mTORC1 (mTOR/GbL/Raptor) it was 700 to 2600 nM.

As to `Cc1nc2ccc(-c3ccc4c(c3)CN(C(=O)N3CC[C@H](O)C[C@@H]3c3ccc(F)cc3)CCO4)cc2[nH]1` (racemic) [Compound 136, (±)-(2R,4S)-2-(4-fluorophenyl)-1-{[7-(2-methyl-1H-benzimidazol-6-yl)-2,3-dihydro-1,4-benzoxazepin-4(5H)-yl]carbonyl}piperidin-4-ol], the figures for the IC50 against PI3Kα and at mTORC1 (mTOR/GbL/Raptor) were 500 to 1000 nM and 50 to 250 nM, respectively.

Consider `Cc1nc2ccc(-c3ccc4c(c3)CN(C(=O)N3CC[C@H](O)C[C@@H]3c3ccc(F)c(F)c3)CCO4)cc2[nH]1` (racemic) [Compound 140, (±)-(2R,4S)-2-(3,4-difluorophenyl)-1-{[7-(2-methyl-1H-benzimidazol-6-yl)-2,3-dihydro-1,4-benzoxazepin-4(5H)-yl]carbonyl}piperidin-4-ol], for which the IC50 at PI3Kα was in the range of 200 to 500 nM; at mTORC1 (mTOR/GbL/Raptor) it was 50 to 250 nM.

Take `Cc1nc2ccc(-c3ccc4c(c3)CN(C(=O)N3CC[C@H](CF)C[C@@H]3c3ccc(F)c(F)c3)CCO4)cc2[nH]1` (racemic) [Compound 147, (±)-4-{[(2R,4S)-2-(3,4-difluorophenyl)-4-(fluoromethyl)piperidin-1-yl]carbonyl}-7-(2-methyl-1H-benzimidazol-6-yl)-2,3,4,5-tetrahydro-1,4-benzoxazepine]: the IC50 on PI3Kα was 1000 to 3000 nM; on mTORC1 (mTOR/GbL/Raptor) it was 250 to 700 nM.

In the case of `Cc1nc2ccc(-c3ccc4c(c3)CN(C(=O)N3CC[C@@H](C#N)C[C@@H]3c3ccc(F)c(F)c3)CCO4)cc2[nH]1` (racemic) [Compound 148, (±)-(2R,4R)-2-(3,4-difluorophenyl)-1-{[7-(2-methyl-1H-benzimidazol-6-yl)-2,3-dihydro-1,4-benzoxazepin-4(5H)-yl]carbonyl}piperidine-4-carbonitrile], the IC50 on PI3Kα fell in the range of 200 to 500 nM; on mTORC1 (mTOR/GbL/Raptor), 50 to 250 nM.

On to `COC(=O)Nc1nc2ccc(-c3ccc4c(c3)CN(C(=O)N3CCC(C)CC3)CCO4)cc2[nH]1` [Compound 2, methyl (6-{4-[(4-methylpiperidin-1-yl)carbonyl]-2,3,4,5-tetrahydro-1,4-benzoxazepin-7-yl}-1H-benzimidazol-2-yl)carbamate], for which the IC50 against PI3Kα was in the range of 200 to 500 nM; at mTORC1 (mTOR/GbL/Raptor) it was 50 to 250 nM.

Consider `CC1CCN(C(=O)N2CCOc3ccc(-c4cnc(N)nc4)cc3C2)CC1` [Compound 3, 5-{4-[(4-methylpiperidin-1-yl)carbonyl]-2,3,4,5-tetrahydro-1,4-benzoxazepin-7-yl}pyrimidin-2-amine], for which the IC50 against PI3Kα lay in the range of 1000 to 3000 nM; on mTORC1 (mTOR/GbL/Raptor), 700 to 2600 nM.

As for `CC(=O)Nc1ncc(-c2ccc3c(c2)CN(C(=O)N2CCC(C)CC2)CCO3)s1` [Compound 5, N-(5-{4-[(4-methylpiperidin-1-yl)carbonyl]-2,3,4,5-tetrahydro-1,4-benzoxazepin-7-yl}-1,3-thiazol-2-yl)acetamide], the IC50 against PI3Kα is 1000 to 3000 nM; on mTORC1 (mTOR/GbL/Raptor) it was 250 to 700 nM.

At PI3Kα, `Cc1nc2ccc(-c3ccc4c(c3)CN(C(=O)N3CC[S+]([O-])CC3)CCO4)cc2[nH]1` [Compound 101, 7-(2-methyl-1H-benzimidazol-6-yl)-4-[(1-oxidothiomorpholin-4-yl)carbonyl]-2,3,4,5-tetrahydro-1,4-benzoxazepine] showed an IC50 of 1000 to 3000 nM.

On to `Cc1nc2ccc(-c3ccc4c(c3)CN(C(=O)N3[C@@H]5CC[C@H]3C[C@@H](CO)C5)CCO4)cc2[nH]1` [Compound 112, (8-{[7-(2-methyl-1H-benzimidazol-6-yl)-2,3-dihydro-1,4-benzoxazepin-4(5H)-yl]carbonyl}-8-azabicyclo[3.2.1]oct-3-(endo)-yl)methanol], for which the IC50 on PI3Kα was 200 to 500 nM.

`Cc1nc2ccc(-c3ccc4c(c3)CN(C(=O)N3CCCCC3c3cc(C(F)(F)F)cc(C(F)(F)F)c3)CCO4)cc2[nH]1` (centres unmarked) [Compound 115, 4-({2-[3,5-bis(trifluoromethyl)phenyl]piperidin-1-yl}carbonyl)-7-(2-methyl-1H-benzimidazol-6-yl)-2,3,4,5-tetrahydro-1,4-benzoxazepine] displayed an IC50 at PI3Kα of 1000 to 3000 nM.

`Cc1nc2ccc(-c3ccc4c(c3)CN(C(=O)N3CCC(O)(C(F)(F)F)CC3c3ccc(F)c(F)c3)CCO4)cc2[nH]1` (centres unmarked) [Compound 119, 2-(3,4-difluorophenyl)-1-{[7-(2-methyl-1H-benzimidazol-6-yl)-2,3-dihydro-1,4-benzoxazepin-4(5H)-yl]carbonyl}-4-(trifluoromethyl)piperidin-4-ol] yielded a half-inhibitory concentration (IC50) on PI3Kα of 1000 to 3000 nM.

Regarding `Cc1nc2ccc(-c3ccc4c(c3)CN(C(=O)N3CCOCC3)CCO4)cc2[nH]1` [Compound 132, 7-(2-methyl-1H-benzimidazol-6-yl)-4-(morpholin-4-ylcarbonyl)-2,3,4,5-tetrahydro-1,4-benzoxazepine], the IC50 at PI3Kα fell in the range of 500 to 1000 nM.

For `Cc1nc2ccc(-c3ccc4c(c3)CN(C(=O)N3CCN(C)CC3c3ccccc3)CCO4)cc2[nH]1` (centres unmarked) [Compound 144, 7-(2-methyl-1H-benzimidazol-6-yl)-4-[(4-methyl-2-phenylpiperazin-1-yl)carbonyl]-2,3,4,5-tetrahydro-1,4-benzoxazepine], the IC50 at PI3Kα lay in the range of 1000 to 3000 nM.

Molecule `CCOC(=O)CN(Cc1ccccc1)C(=O)N1CCOc2ccc(-c3ccc4nc(C)[nH]c4c3)cc2C1` [Compound 151, ethyl N-{[7-(2-methyl-1H-benzimidazol-6-yl)-2,3-dihydro-1,4-benzoxazepin-4(5H)-yl]carbonyl}-N-(phenylmethyl)glycinate] came in with an IC50 at PI3Kα of 1000 to 3000 nM.

For `Cc1nc2ccc(-c3ccc4c(c3)CN(C(=O)N3CCN(C(=O)c5ccco5)CC3)CCO4)cc2[nH]1` [Compound 158, 4-{[4-(furan-2-ylcarbonyl)piperazin-1-yl]carbonyl}-7-(2-methyl-1H-benzimidazol-6-yl)-2,3,4,5-tetrahydro-1,4-benzoxazepine], at PI3Kα, the IC50 was 1000 to 3000 nM.

Turning to `Cc1nc2ccc(-c3ccc4c(c3)CN(C(=O)N3CCN(c5ccc([N+](=O)[O-])cc5)CC3)CCO4)cc2[nH]1` [Compound 168, 7-(2-methyl-1H-benzimidazol-6-yl)-4-{[4-(4-nitrophenyl)piperazin-1-yl]carbonyl}-2,3,4,5-tetrahydro-1,4-benzoxazepine], the IC50 at PI3Kα fell in the range of 200 to 500 nM.

At PI3Kα, `CC(=O)c1ccc(N2CCN(C(=O)N3CCOc4ccc(-c5ccc6nc(C)[nH]c6c5)cc4C3)CC2)cc1` [Compound 169, 1-[4-(4-{[7-(2-methyl-1H-benzimidazol-6-yl)-2,3-dihydro-1,4-benzoxazepin-4(5H)-yl]carbonyl}piperazin-1-yl)phenyl]ethanone] registered an IC50 of 500 to 1000 nM.
